Like-named read-outs stand apart in the source and are kept apart here.
Tests used:
[1] = system: transplanted tumor S180; details: S180 mice; for Body weight After administration / Tumor weight / Tumor-inhibition rate: once every two days, four times
Experimental: Experimental groups: three dosage groups were set up for DPT, 10, 5 and 2.5 mg/kg; the blank control group: cyclophosphamide (CTX) group, Etoposide group 20 mg/kg.
Administration route: injection via tail vein, it is administered in a dosage of 0.4 ml/20 g body weight. Administration period: the drug is administrated 24 hours after the inoculation, once every two days for four times in total.
Experimental methods: 60 ICR mice with standard weight of from 18 to 22 g are inoculated with S-180 or Heps solid tumor according to the test method for transplanted tumors, hypodermic inoculation with 0.2 ml is carried out in the armpit in the anterior limb of every mouse. The body weight is determined 24 hours after the inoculation and they are randomly divided into six groups: the blank control group, the CTX group (20 mg/kg), the Etoposide group (20 mg/kg), the DPT group (10, 5 and 2.5 mg/Kg). The drug is administrated 24 hours after the inoculation once for every two days for 4 times, and tumor-bearing mice are killed on the next after drug withdrawal and their body weights are measured, and the separated tumor mess is weighed, and all of the data are subjected to statistical analyses (t-test).

[2] = system: human non-small cell lung cancer H460 xenograft tumor; details: for Ending body weight / Tumor weight / Tumor-inhibition rate: 21 days
Experimental: The test article: the inclusion complex of DPT and SBE-β-CD, the content is 5.05%. Preparation Method: it is dissolved in a proper amount of saline after gentle shaking and the concentration is 0.4 mg/ml (which is the test solution for the 8 mg/kg group); other concentrations are prepared by diluting the stock solution of 0.4 mg/ml to the required concentration with physiological saline.
The control article: Etoposide injection produced by Qilu Pharmaceutical Co., Ltd. the batch number is 8060012EV, specification: 5 ml:0.1 g. Preparation Method: Etoposide injection is a kind of transparent sticky liquid and it is diluted with a proper amount of physiological saline and gently shaken and prepared as a homogeneous solution, and the concentration is 1 mg/ml.
Dosage setting: the high dosage group of DPT is 8 mg/kg, the medium dosage group of DPT is 4 mg/kg and the low dosage group of DPT is 2 mg/kg. The dosage for the positive control group of Etoposide injection is 20 mg/kg.
Experimental animals: source, germline and strain: BALB/c nude mice are provided by the Institute of Experimental Animals, Chinese Academy of Medical Sciences. Age: 35-40 days; body weight: 18-24 g; gender: male.
Transplanted tumor: the transplanted tumor for human nonsmall-cell lung cancer H460 in nude mice, and it is established by inoculating the human nonsmall-cell lung cancer H460 cell line hypodermically in the armpit of nude mice. 2×10^6 cells are inoculated.
Human non-small cell lung cancer H460 cell line in exponential phase of growth is prepared as a cell suspension of 2×10^7/ml under sterile conditions, 0.1 ml thereof is inoculated hypodermically in the right armpit of nude mice. The diameters of the transplanted tumors in the nude mice are measured by a sliding caliper, and the animals are randomly divided into different groups when the tumors grow up to the amount of 100 to 300 mm^3. The antitumor efficacy of the test article is dynamically observed by measuring the diameter of the tumor. The diameters of the tumor are determined once for every two days. The administration volume is 0.4 ml/20 g. The mice are killed 21 days after administration, and the tumors are surgically isolated and weighed. The calculation formula for tumor volume (TV) is as follows: TV=½×a×b^2 Wherein a and b represents for the length and the width, respectively.
The relative tumor volume (RTV) is calculated according to the measured results, and the calculation formula is as follows: RTV=Vt/V0. Wherein V0 is the tumor size measured during grouping and drug administration (d0), Vt is the tumor size in every measurements. The evaluation parameter for antitumor activity is the relative tumor growth rate T/C (%) which is calculated according to the formula as follows:
[formula] TRTV: the treatment group RTV; CRTV: the negative control group: RTV.

[3] = H460 nude mice, 8 mg/kg iv three times a week, 9 times

For `COc1cc([C@@H]2c3cc4c(cc3C[C@H]3COC(=O)[C@@H]32)OCO4)cc(OC)c1OC` [DPT, Deoxypodophyllotoxin], the “Body weight Before administration” value ([1]; 2.5 mg/kg iv group) was 19.70 ± 1.16 g, the “Body weight After administration” value ([1]; 2.5 mg/kg iv) was 24.90 ± 2.47 g and the Tumor weight ([1]; 2.5 mg/kg iv) was 1.41 ± 0.30 g. The Tumor-inhibition rate ([1]; 2.5 mg/kg iv) was 23.44%, the “Body weight Before administration” value ([1]; 5 mg/kg iv group) was 19.00 ± 0.94 g and the “Body weight After administration” value ([1]; 5 mg/kg iv) was 22.50 ± 2.55 g. For the same compound, the Tumor weight ([1]; 5 mg/kg iv) was 1.08 ± 0.26 g, the Tumor-inhibition rate ([1]; 5 mg/kg iv) was 41.67% and the “Body weight Before administration” value ([1]; 10 mg/kg iv group) was 19.40 ± 1.71 g. The “Body weight After administration” value ([1]; 10 mg/kg iv) was 22.50 ± 2.07 g, the Tumor weight ([1]; 10 mg/kg iv) was 0.84 ± 0.27 g and the Tumor-inhibition rate ([1]; 10 mg/kg iv) was 54.53%. The Tumor volume ([2]; 2 mg/kg iv, 0 d) was 296 ± 117 mm^3, the RTV ([2]; 2 mg/kg iv, 2 d) was 1.396 ± 0.251 and the T/C ([2]; 2 mg/kg iv, 2 d) was 86.85%. For the same compound, the Tumor volume ([2]; 2 mg/kg iv, 2 d) was 427 ± 190 mm^3, the RTV ([2]; 2 mg/kg iv, 4 d) was 1.827 ± 0.373 and the T/C ([2]; 2 mg/kg iv, 4 d) was 69.97%. For the same compound, the Tumor volume ([2]; 2 mg/kg iv, 4 d) was 554 ± 234 mm^3, the RTV ([2]; 2 mg/kg iv, 6 d) was 2.391 ± 0.764 and the T/C ([2]; 2 mg/kg iv, 6 d) was 78.07%. It also gave a Tumor volume ([2]; 2 mg/kg iv, 6 d) of 729 ± 364 mm^3, an RTV ([2]; 2 mg/kg iv, 8 d) of 2.819 ± 0.559 and a T/C ([2]; 2 mg/kg iv, 8 d) of 64.20%. The Tumor volume ([2]; 2 mg/kg iv, 8 d) was 807 ± 294 mm^3, the Gross tumor volume ([2]; 2 mg/kg iv, 10 d) was 1039 ± 316 mm^3 and the RTV ([2]; 2 mg/kg iv, 10 d) was 3.750 ± 1.015. It also gave a T/C ([2]; 2 mg/kg iv, 10 d) of 74.96%, a Gross tumor volume ([2]; 2 mg/kg iv, 12 d) of 1424 ± 511 mm^3 and an RTV ([2]; 2 mg/kg iv, 12 d) of 5.122 ± 1.538. The T/C ([2]; 2 mg/kg iv, 12 d) was 68.96%, the RTV ([2]; 2 mg/kg iv, 14 d) was 6.698 ± 2.532 and the T/C ([2]; 2 mg/kg iv, 14 d) was 78.93%. For the same compound, the Tumor volume ([2]; 2 mg/kg iv, 14 d) was 1777 ± 386 mm^3, the RTV ([2]; 2 mg/kg iv, 16 d) was 8.626 ± 3.791 and the T/C ([2]; 2 mg/kg iv, 16 d) was 86.49%. It also gave a Tumor volume ([2]; 2 mg/kg iv, 16 d) of 2249 ± 394 mm^3, an RTV ([2]; 2 mg/kg iv, 18 d) of 8.825 ± 3.701 and a T/C ([2]; 2 mg/kg iv, 18 d) of 78.31%. It also gave a Tumor volume ([2]; 2 mg/kg iv, 18 d) of 2304 ± 405 mm^3, an RTV ([2]; 2 mg/kg iv, 21 d) of 9.776 ± 3.452 and a T/C ([2]; 2 mg/kg iv, 21 d) of 84.89%. For the same compound, the Tumor volume ([2]; 2 mg/kg iv, 21 d) was 2591 ± 412 mm^3, the Tumor volume ([2]; 4 mg/kg iv, 0 d) was 272 ± 131 mm^3 and the RTV ([2]; 4 mg/kg iv, 2 d) was 1.324 ± 0.236. It also gave a T/C ([2]; 4 mg/kg iv, 2 d) of 82.37%, a Tumor volume ([2]; 4 mg/kg iv, 2 d) of 381 ± 234 mm^3 and an RTV ([2]; 4 mg/kg iv, 4 d) of 1.823 ± 0.427. The T/C ([2]; 4 mg/kg iv, 4 d) was 69.82%, the Tumor volume ([2]; 4 mg/kg iv, 4 d) was 521 ± 288 mm^3 and the RTV ([2]; 4 mg/kg iv, 6 d) was 2.465 ± 0.699. It also gave a T/C ([2]; 4 mg/kg iv, 6 d) of 80.49%, a Tumor volume ([2]; 4 mg/kg iv, 6 d) of 729 ± 471 mm^3 and an RTV ([2]; 4 mg/kg iv, 8 d) of 3.331 ± 0.641. The T/C ([2]; 4 mg/kg iv, 8 d) was 75.85%, the Tumor volume ([2]; 4 mg/kg iv, 8 d) was 906 ± 434 mm^3 and the Gross tumor volume ([2]; 4 mg/kg iv, 10 d) was 1052 ± 475 mm^3. It also gave an RTV ([2]; 4 mg/kg iv, 10 d) of 4.041 ± 1.493, a T/C ([2]; 4 mg/kg iv, 10 d) of 80.78% and a Gross tumor volume ([2]; 4 mg/kg iv, 12 d) of 1261 ± 586 mm^3. The RTV ([2]; 4 mg/kg iv, 12 d) was 4.780 ± 1.070, the T/C ([2]; 4 mg/kg iv, 12 d) was 64.35% and the RTV ([2]; 4 mg/kg iv, 14 d) was 5.954 ± 1.425. The T/C ([2]; 4 mg/kg iv, 14 d) was 70.16%, the Tumor volume ([2]; 4 mg/kg iv, 14 d) was 1530 ± 572 mm^3 and the RTV ([2]; 4 mg/kg iv, 16 d) was 6.870 ± 1.613. For the same compound, the T/C ([2]; 4 mg/kg iv, 16 d) was 68.88%, the Tumor volume ([2]; 4 mg/kg iv, 16 d) was 1740 ± 637 mm^3 and the RTV ([2]; 4 mg/kg iv, 18 d) was 7.697 ± 2.279. The T/C ([2]; 4 mg/kg iv, 18 d) was 68.30%, the Tumor volume ([2]; 4 mg/kg iv, 18 d) was 1891 ± 664 mm^3 and the RTV ([2]; 4 mg/kg iv, 21 d) was 7.832 ± 1.816. The T/C ([2]; 4 mg/kg iv, 21 d) was 68.01%, the Tumor volume ([2]; 4 mg/kg iv, 21 d) was 1945 ± 586 mm^3 and the Tumor volume ([2]; 8 mg/kg iv, 0 d) was 247 ± 108 mm^3. It also gave an RTV ([2]; 8 mg/kg iv, 2 d) of 1.248 ± 0.113, a T/C ([2]; 8 mg/kg iv, 2 d) of 77.61% and a Tumor volume ([2]; 8 mg/kg iv, 2 d) of 313 ± 151 mm^3. For the same compound, the RTV ([2]; 8 mg/kg iv, 4 d) was 1.721 ± 0.287, the T/C ([2]; 8 mg/kg iv, 4 d) was 65.92% and the Tumor volume ([2]; 8 mg/kg iv, 4 d) was 430 ± 196 mm^3. It also gave an RTV ([2]; 8 mg/kg iv, 6 d) of 2.403 ± 0.652, a T/C ([2]; 8 mg/kg iv, 6 d) of 78.45% and a Tumor volume ([2]; 8 mg/kg iv, 6 d) of 559 ± 179 mm^3. It also gave an RTV ([2]; 8 mg/kg iv, 8 d) of 2.747 ± 0.766, a T/C ([2]; 8 mg/kg iv, 8 d) of 62.55% and a Tumor volume ([2]; 8 mg/kg iv, 8 d) of 635 ± 183 mm^3. The Gross tumor volume ([2]; 8 mg/kg iv, 10 d) was 895 ± 252 mm^3, the RTV ([2]; 8 mg/kg iv, 10 d) was 3.853 ± 0.732 and the T/C ([2]; 8 mg/kg iv, 10 d) was 77.03%. The Gross tumor volume ([2]; 8 mg/kg iv, 12 d) was 1034 ± 246 mm^3, the RTV ([2]; 8 mg/kg iv, 12 d) was 4.548 ± 1.106 and the T/C ([2]; 8 mg/kg iv, 12 d) was 61.23%. It also gave an RTV ([2]; 8 mg/kg iv, 14 d) of 4.845 ± 1.330, a T/C ([2]; 8 mg/kg iv, 14 d) of 57.10% and a Tumor volume ([2]; 8 mg/kg iv, 14 d) of 1122 ± 368 mm^3. The RTV ([2]; 8 mg/kg iv, 16 d) was 4.955 ± 1.786, the T/C ([2]; 8 mg/kg iv, 16 d) was 49.68% and the Tumor volume ([2]; 8 mg/kg iv, 16 d) was 1132 ± 397 mm^3. The RTV ([2]; 8 mg/kg iv, 18 d) was 5.609 ± 1.197, the T/C ([2]; 8 mg/kg iv, 18 d) was 49.77% and the Tumor volume ([2]; 8 mg/kg iv, 18 d) was 1292 ± 340 mm^3. It also gave an RTV ([2]; 8 mg/kg iv, 21 d) of 5.721 ± 0.925, a T/C ([2]; 8 mg/kg iv, 21 d) of 49.68% and a Tumor volume ([2]; 8 mg/kg iv, 21 d) of 1375 ± 558 mm^3. The Initial body weight ([2]; H460 nude mice, 2 mg/kg iv group) was 22.50 ± 1.38 g, the Ending body weight ([2]; H460 nude mice, 2 mg/kg iv) was 25.32 ± 2.25 g and the Tumor weight ([2]; H460 nude mice, 2 mg/kg iv) was 2.94 ± 0.68 g. It also gave a Tumor-inhibition rate ([2]; H460 nude mice, 2 mg/kg iv) of 9.49%, an Initial body weight ([2]; H460 nude mice, 4 mg/kg iv group) of 23.33 ± 2.25 g and an Ending body weight ([2]; H460 nude mice, 4 mg/kg iv) of 23.32 ± 2.08 g. For the same compound, the Tumor weight ([2]; H460 nude mice, 4 mg/kg iv) was 2.52 ± 0.92 g, the Tumor-inhibition rate ([2]; H460 nude mice, 4 mg/kg iv) was 22.56% and the Initial body weight ([2]; H460 nude mice, 8 mg/kg iv group) was 22.33 ± 1.51 g. For the same compound, the Ending body weight [2, 3] was 22.55 ± 2.50 g, the Tumor weight [2, 3] was 1.85 ± 0.95 g and the Tumor-inhibition rate [2, 3] was 43.08%. The “effects on the body weight of the animals” value ([2]; H460 nude mice, dosage groups of DPT (8, 4, 2 mg/kg iv)) was “no significant inhibition effects on the body weight of the animals”.

Source: US8859527B2 (priority 2009, dated 2014)
